Results from patent publication US11773108B2, “Indene derivatives useful in treating pain and inflammation” (TARO PHARMACEUTICALS INC., priority 2018, dated 2023).
Read-outs that look alike come from different tables or passages of the source.

Legend:
[1] = Metabolism by human liver microsomes; type: in vitro ADME; conditions: human liver microsomes 1 mg/mL protein, 10 μM, in the presence of NADPH, LC-MS/MS
Method: Representative compounds of the invention (i.e., test compounds) and the positive control, 7-ethoxycoumarin, were prepared as stock solutions at 10 mM in DMSO and eventually diluted to 10 μM in the test plate, with an appropriate amount of acetonitrile and tris HCl buffer. Final DMSO and acetonitrile concentrations were […] and 0.5% respectively. NADPH was prepared in tris HCl buffer to a stock of 10 mM. A frozen aliquot of liver microsomes was retrieved from the freezer (−80° C.) and thawed by placing the tube on wet ice. After thawing, the tubes were gently mixed and the required amount, transferred to tris HCl buffer. Test compounds or positive control were pre-incubated, separately, for 10 minutes, with liver microsomes (1 mg/mL protein), at 37° C., in 100 mM Tris HCl at pH 7.5. After preincubation the reaction was started by adding 1 mM NADPH (pre-equilibrated to 30° C.) and the reaction allowed to proceed for 60 minutes. At 60 minutes, a 50 μL aliquot was removed and quenched with 200 uL of acetonitrile containing a mixture of internal standards (Tolbutamide (500 ng/mL) and Telmistartan (500 ng/mL)) and vortexed then centrifuged at 4000 rpm for 10 minutes (Eppendorf 5810R). The supernatant was transferred to a 96 well plate for LC-MS/MS analysis.
An LC-MS/MS method was devised for the test compounds and the control, using a AB Sciex API 4000 system coupled to a NEXAR™ UHPLC (Shimadzu) system. Analytes were separated on a Phenomenex Kinetex C18 column (50×2.1 mm, 5 μm) using a gradient that was appropriate for each compound, at a flow rate of 1 ml/minute, utilizing a mobile phase of 0.1% formic acid in MILLI-Q™ water (A) and 0.1% formic acid in acetonitrile (B). The MS instrument was operated in positive mode (ESI+)/negative (ESI−). The multiple reaction monitoring (MRM) transition for test and control compounds was used for the LC-MS/MS analysis. MRM transitions for control compound 7-ethoxycoumarinm were Quadropole 1: 191.0, Quadropole 3:163.0, dwell time: 75 msec, using curtain gas settings of 5 V, ion-spray voltage of 5500 V, temperature of 50° C. and gas settings for nebulizer and auxiliary set to 30 and 40 psi, respectively. The interface heater was kept on. Entrance potential and collision cell exit potential were varied to tune for a specific compound.
Using a suitable LC-MS/MS method, the percentage of drug remaining at 60 minutes ([…]) was assessed by comparing the average analyte to internal standard area ratio at 60 minutes to the average analyte to internal standard area ratio at 0 time control, as a percentage, from a 5 to 10 μL sample injection.
According to the above assay, the test compounds listed in Table 7 below were active in the Human liver microsome assay at 10 μM and the % of drug remaining after 60 minutes (PDR60), in the presence of NADPH, was assessed by LC-MS/MS. Average PDR60 for the standard compound, 7-ethoxycoumarin was <=65% in the presence of NADPH. Scoring for the test compounds, in the presence of NADPH, was as follows: “A” represents a PDR60 of 81 to 100%, “B” represents a PDR60 of 61 to 80%, “C” represents a PDR60 of 31 to 60% and “D” represents a PDR60 of 0 to 30%.

[2] = tested on: rat dorsal root ganglion (DRG) cells; assay: Rat dorsal root ganglion (DRG) excitability response to electrical field stimulation; type: cell-based; conditions: adult rat DRG cells
Method: Rat Dorsal Root Ganglion Excitability Response of Representative Compounds Dorsal root ganglions (DRGs) were dissected from adult rats. The tissue was processed, and cells were seeded into cell culture plates (48 center wells of one quadrant in 384-well plates) and cultured for 2 days prior to Electrical field stimulation (EFS). To visualize the neuronal excitability response, intracellular Ca^+2 transients were monitored using the Ca^+2 indicator, Ca5. Ca5 was added to the cultures 1 h prior to EFS. Representative compounds of the invention (i.e., test compounds) and reference compound, tetracaine, were added in concentration-response format encompassing six concentrations, performed in duplicate. The highest concentration tested was typically 30 μM with 1 in 3 dilutions generating the subsequent concentrations.
Effects on DRG excitability by the test compounds and standard were evaluated using four EFS protocols as disclosed in Table 2.
Experimental results were performed using two seperate sets of plates using separate test compound and standard dilutions, to provide n=2. In the first set of experiments, compounds were added 24 h prior to EFS to increase the possibility to also detect more long-term compound effects. In the second set of experiments the compounds were added directly prior to EFS. Excitability response to EFS was analyzed as the average fluorescence ratio (peak/baseline) change per well. All plates were evaluated using high content imaging equipment post-EFS, imaging the Ca5 background staining to detect any possibile compound-related toxic effects.
Average response by the reference compound, tetracaine, was 4.05 μM.

[3] = Ca5 Ca2+ indicator, six concentrations, highest typically 30 μM, read-out: Scoring: EC50, modulation of rat DRG excitability

With C=C1CC[C@H]2[C@H](CN)[C@@H]([C@@]3(C)Cc4cnn(-c5ccc(Oc6ccc(C(=O)O)cc6)cc5)c4C[C@@H]3CO)CC[C@]12C [Ia-36, 4-(4-((5R,6S)-5-((3aS,4R,5S,7aS)-4-(aminomethyl)-7a-methyl-1-methyleneoctahydro-1H-inden-5-yl)-6-(hydroxymethyl)-5-methyl-4,5,6,7-tetrahydro-1H-indazol-1-yl)phenoxy)benzoic acid] the “Scoring: % of drug remaining after 60 minutes (PDR60)” value (from here on “Scoring: % of drug remaining”) [1] was “A (“A” represents a PDR60 of 81 to 100%)” and the EC50 [2, 3] was over 15000 nM.

With C=C1CC[C@H]2[C@H](CN)[C@@H]([C@@]3(C)Cc4cnn(-c5ccc(F)c(F)c5)c4C[C@@H]3CO)CC[C@]12C [Ia-22, ((5R,6S)-5-((3aS,4R,5S,7aS)-4-(aminomethyl)-7a-methyl-1-methyleneoctahydro-1H-inden-5-yl)-1-(3,4-difluorophenyl)-5-methyl-4,5,6,7-tetrahydro-1H-indazol-6-yl)methanol] the “Scoring: % of drug remaining” value [1] was “D (“D” represents a PDR60 of 0 to 30%)” and the EC50 [2, 3] was under 2000 nM.

C[C@H]1CC[C@H]2[C@H](CN)[C@@H]([C@@]3(C)Cc4cnn(-c5ccc(F)cc5)c4C[C@@H]3CO)CC[C@]12C [Ia-47, ((5R,6S)-5-((1S,3aS,4S,5S,7aR)-4-(aminomethyl)-1,7a-dimethyloctahydro-1H-inden-5-yl)-1-(4-fluorophenyl)-5-methyl-4,5,6,7-tetrahydro-1H-indazol-6-yl)methanol] gave an EC50 [2, 3] of under 2000 nM.

With C=C1CC[C@H]2[C@H](CN)[C@@H]([C@@]3(C)Cc4cnn(-c5ccc(Oc6ccccc6)cc5)c4C[C@@H]3CO)CC[C@]12C [Ia-28, ((5R,6S)-5-((3aS,4R,5S,7aS)-4-(aminomethyl)-7a-methyl-1-methyleneoctahydro-1H-inden-5-yl)-5-methyl-1-(4-phenoxyphenyl)-4,5,6,7-tetrahydro-1H-indazol-6-yl)methanol] the “Scoring: % of drug remaining” value [1] was “B (“B” represents a PDR60 of 61 to 80%)” and the EC50 [2, 3] was under 2000 nM.

With C=C1CC[C@H]2[C@H](CN)[C@@H]([C@@]3(C)Cc4cn(-c5ncc(F)cn5)nc4C[C@@H]3CO)CC[C@]12C [Ia-27, ((5R,6S)-5-((3aS,4R,5S,7aS)-4-(aminomethyl)-7a-methyl-1-methyleneoctahydro-1H-inden-5-yl)-2-(5-fluoropyrimidin-2-yl)-5-methyl-4,5,6,7-tetrahydro-2H-indazol-6-yl)methanol] the “Scoring: % of drug remaining” value [1] was “C (“C” represents a PDR60 of 31 to 60%)” and the EC50 [2, 3] was 6000 to 15000 nM.

For C=C1CC[C@H]2[C@H](CN)[C@@H]([C@@]3(C)Cc4cnn(-c5ccc(Oc6ccc(F)cc6)cc5)c4C[C@@H]3CO)CC[C@]12C [Ia-24, ((5R,6S)-5-((3aS,4R,5S,7aS)-4-(aminomethyl)-7a-methyl-1-methyleneoctahydro-1H-inden-5-yl)-1-(4-(4-fluorophenoxy)phenyl)-5-methyl-4,5,6,7-tetrahydro-1H-indazol-6-yl)methanol], the “Scoring: % of drug remaining” value [1] was “B (“B” represents a PDR60 of 61 to 80%)” and the EC50 [2, 3] was under 2000 nM.

With C=C1CC[C@H]2[C@H](CN)[C@@H]([C@@]3(C)Cc4cnn(-c5ccc(F)cc5)c4C[C@@H]3CO)CC[C@]12C [Ia-12, ((5R,6S)-5-((3aS,4R,5S,7aS)-4-(aminomethyl)-7a-methyl-1-methyleneoctahydro-1H-inden-5-yl)-1-(4-fluorophenyl)-5-methyl-4,5,6,7-tetrahydro-1H-indazol-6-yl)methanol] the “Scoring: % of drug remaining” value [1] was “D (“D” represents a PDR60 of 0 to 30%)” and the EC50 [2, 3] was under 2000 nM.

In the case of C=C1CC[C@H]2[C@H](CN)[C@@H]([C@@]3(C)Cc4cn(Cc5ccc(OC)cc5)nc4C[C@@H]3CO)CC[C@]12C [Ia-17, ((5R,6S)-5-((3aS,4R,5S,7aS)-4-(aminomethyl)-7a-methyl-1-methyleneoctahydro-1H-inden-5-yl)-2-(4-methoxybenzyl)-5-methyl-4,5,6,7-tetrahydro-2H-indazol-6-yl)methanol], the “Scoring: % of drug remaining” value [1] is reported as “C (“C” represents a PDR60 of 31 to 60%)”.

In the case of C[C@]1([C@H]2CC[C@]3(C)C(c4ccccc4)=CC[C@H]3[C@@H]2CN)Cc2cn[nH]c2C[C@@H]1CO [Ia-6, ((5R,6S)-5-((3aS,6S,7R,7aS)-7-(aminomethyl)-3a-methyl-3-phenyl-3a,4,5,6,7,7a-hexahydro-1H-inden-6-yl)-5-methyl-4,5,6,7-tetrahydro-1H-indazol-6-yl)methanol], the “Scoring: % of drug remaining” value [1] is reported as “A (“A” represents a PDR60 of 81 to 100%)”.

CCCCNc1ccc(C(=O)OCCN(C)C)cc1 [tetracaine, reference compound] showed an EC50 ([2]; reference compound, read-out: Average response (rat DRG excitability)) of 4050 nM.

C=C1CC[C@H]2[C@H](CN)[C@@H]([C@@]3(C)Cc4cnn(Cc5ccc(F)cc5)c4C[C@@H]3CO)CC[C@]12C [Ia-18, ((5R,6S)-5-((3aS,4R,5S,7aS)-4-(aminomethyl)-7a-methyl-1-methyleneoctahydro-1H-inden-5-yl)-1-(4-fluorobenzyl)-5-methyl-4,5,6,7-tetrahydro-1H-indazol-6-yl)methanol] showed an EC50 [2, 3] of under 2000 nM.

With C=C1CC[C@H]2[C@H](CN)[C@@H]([C@@]3(C)Cc4cnn(-c5ccc(F)cc5F)c4C[C@@H]3CO)CC[C@]12C [Ia-34, ((5R,6S)-5-((3aS,4R,5S,7aS)-4-(aminomethyl)-7a-methyl-1-methyleneoctahydro-1H-inden-5-yl)-1-(2,4-difluorophenyl)-5-methyl-4,5,6,7-tetrahydro-1H-indazol-6-yl)methanol] the “Scoring: % of drug remaining” value [1] was “D (“D” represents a PDR60 of 0 to 30%)”.

For C=C1CC[C@H]2[C@H](CN)[C@@H]([C@@]3(C)Cc4cn(Cc5ccc(F)cc5)nc4C[C@@H]3CO)CC[C@]12C [Ia-19, ((5R,6S)-5-((3aS,4R,5S,7aS)-4-(aminomethyl)-7a-methyl-1-methyleneoctahydro-1H-inden-5-yl)-2-(4-fluorobenzyl)-5-methyl-4,5,6,7-tetrahydro-2H-indazol-6-yl)methanol], the “Scoring: % of drug remaining” value [1] was “B (“B” represents a PDR60 of 61 to 80%)”.

In the case of C=C1CC[C@H]2[C@H](CN)[C@@H]([C@@]3(C)Cc4cn(-c5ccc(F)cc5)nc4C[C@@H]3CO)CC[C@]12C [Ia-13, ((5R,6S)-5-((3aS,4R,5S,7aS)-4-(aminomethyl)-7a-methyl-1-methyleneoctahydro-1H-inden-5-yl)-2-(4-fluorophenyl)-5-methyl-4,5,6,7-tetrahydro-2H-indazol-6-yl)methanol], the “Scoring: % of drug remaining” value [1] is reported as “A (“A” represents a PDR60 of 81 to 100%)”.

With C=C1CC[C@H]2[C@H](CN)[C@@H]([C@@]3(C)Cc4cn(C5CCC(F)(F)CC5)nc4C[C@@H]3CO)CC[C@]12C [Ia-39, ((5R,6S)-5-((3aS,4R,5S,7aS)-4-(aminomethyl)-7a-methyl-1-methyleneoctahydro-1H-inden-5-yl)-2-(4,4-difluorocyclohexyl)-5-methyl-4,5,6,7-tetrahydro-2H-indazol-6-yl)methanol] the “Scoring: % of drug remaining” value [1] was “A (“A” represents a PDR60 of 81 to 100%)”.
